# Measured values published in US20090069424A1, “TGF-alpha expression inhibitors” (NIKKEN CHEMICALS CO., LTD., priority 2002, published 2009).
# Columns and labels:
# [1] = system: TGF-α expression in oval cells; assay: TGF-α expression in oval cells in a rat induced by D-galactosamine hydrochloride, anti TGF-α immunohistological staining; assay type: in vivo; details: 200 mg/kg/day orally for four days; control strongly positive; FIG. 15
# Experimental: Male SD rats (Crj/CD (SD), 6-week old) were used as an animal, and D-galactosamine hydrochloride (5 ml/kg) prepared as 200 mg/mL with physiological saline was intraperitoneally administered once to each rat to induce oval cells. NIK-333 was suspended in soybean oil, and a dose of 200 mg/kg was orally administered to each rat for 1 to 6 days. To the control group, soybean oil (2 mL/kg) was orally administered. From the next day to 7 days after the start of the administration, the livers were extirpated under anesthesia with passage of time. The livers were subjected to 10% formalin fixation and paraffin embedding, and further to immunological staining by using an anti TGF-α antibody. TGF-α expression levels were analyzed under microscope.
# FIGS. 13 to 15 are photographs showing inhibitory effects on TGF-α expression in oval cells induced by the administration of D-galactosamine hydrochloride, when 200 mg/kg/day of NIK-333 was administered for four days (immunohistological staining using an anti TGF-α antibody). Similar observations were obtained in other animals which were analyzed at the same time.
# [2] = system: TGF-α expression in oval cells; assay: Induction of TGF-α positive oval cells of a rat by 3′-MeDAB, anti TGF-α immunohistological staining of liver; assay type: in vivo
# Experimental: Male Fischer rats (F344/N Slc, 6-week old) were used as an animal, and the rats were given with solid feed prepared to contain a hepatic chemical carcinogen 3′-MeDAB in a ratio of 0.06% for four weeks to induce oval cells. NIK-333 was suspended in soybean oil, and a dose of 80 mg/kg was orally administered to each rat for four weeks (once/a day) along with the administration of 3′-MeDAB. To a control group, soybean oil (5 mL/kg) was orally administered. After 4 weeks from the start of the administration of 3′-MeDAB, livers were extirpated under anesthesia. The livers were subjected to 10% formalin fixation and paraffin embedding, and further to immunological staining by using an anti TGF-α antibody. TGF-α expression levels were analyzed under microscope.
# FIGS. 1 to 3 are photographs showing inhibitory effects on induction of TGF-α positive oval cells induced by the four-week administration of 3′-MeDAB, when 80 mg/kg/day of NIK-333 was simultaneously administered for four weeks (immunohistological staining by using the anti TGF-α antibody). Similar observations were obtained in other animals which were analyzed at the same time.
# [3] = system: hepatoma; details: clinical, cited from earlier work
# [4] = system: TGF-α expression in non-tumor hepatic tissue; assay: TGF-α expression in non-tumor hepatic tissue of a rat after DEN administration, anti TGF-α immunohistological staining; assay type: in vivo; details: 80 mg/kg/day orally for 14 weeks from one week after 5-week DEN; control strongly positive; FIGS. 6 and 9
# Experimental: Male Fischer rats (F344/N Slc, 6-week old) were used as an animal, and the rats were administered with a hepatic chemical carcinogen DEN for 5 weeks in a form of drinking water (concentration: 40 ppm), and then bred with normal drinking water for successive 15 weeks to induce hepatocellular carcinoma. NIK-333 was suspended in soybean oil, and a dose of 80 mg/kg was orally administered to each rat for 14 weeks (once/a day) from one week after the end of the administration of DEN. To a control group, soybean oil (5 mL/kg) was orally administered. After 20 weeks from the start of the administration of DEN, livers were extirpated under anesthesia. The livers were subjected to 10% formalin fixation and paraffin embedding, and further to immunological staining by using an anti TGF-α antibody. TGF-α expression levels were analyzed under microscope.
# FIGS. 4 to 6 are photographs showing inhibitory effects on TGF-α expression in a non-tumor hepatic tissue, when the administration was ceased for one week after the 5-week treatment with DEN, and then 80 mg/kg/day of NIK-333 was administered for 14 weeks (immunohistological staining by using an anti TGF-α antibody). Similar observations were obtained in other animals which were analyzed at the same time.
compound,measurement,setting,value
"CC(C)=CCC/C(C)=C/CC/C(C)=C/C=C/C(C)=C/C(=O)O [NIK-333, (2E,4E,6E,10E)-3,7,11,15-tetramethyl-2,4,6,10,14-hexadecapentaenoic acid]",TGF-α observation of oval cells expressed by D-galactosamine hydrochloride,[1],weakly positive
same,TGF-α observation of oval cells expressed with 3′-MeDAB,"[2]; 80 mg/kg/day orally for four weeks along with 0.06% 3′-MeDAB feed, control strongly positive, FIG. 3",weakly positive
same,"number of oval cells with strongly positive TGF-α observation, expressed with 3′-MeDAB","[2]; 80 mg/kg/day orally for four weeks along with 3′-MeDAB, versus control, FIG. 12",reduced
same,side effect such as dysfunction of liver and those with other retinoids,[3]; during one-year administration,almost no side effect
same,recurrence after radical cure of hepatoma,[3]; long-term administration for one year,significantly suppressed
same,"TGF-α observation in hepatic tissues surrounding the central vein, expressed by DEN",[4],almost negative
